The text below walks through data of patent publication US8541617B2, “Cycloalkylphenyl substituted cyclic ketoenols” (Bayer Cropscience AG, priority 2006, dated 2013).

Each structure is given as a SMILES string.

In one data set the test system is Summer barley. In words: Example C: Herbicidal post-emergence action, use of safeners (crop plant damage). The data set is classed as in vivo. The following applies: for Summer barley observed (%): no safener; for Summer barley observed (%), 10 days after application / Summer barley observed (%), 28 days after application: greenhouse container trial. The method, then:
(§1) Herbicidal Post-Emergence Action
(§2) Seeds of monocotylos and dicotylos weed and crop plants are placed into sandy lawn in wood fibre pots or in plastic pots, covered with soil and cultivated in a greenhouse, during the vegetation period also outdoors outside of the greenhouse, under good growth conditions. Two to three weeks after sowing, the test plants are treated at the one- to three-leaf stage. The test compounds, formulated as wettable powders (WP) or liquid (EC), are, in the various dosages at a water application rate of 300 l/ha (converted), with wetting agent (0.2 to 0.3%) added, sprayed onto the plants and the surface of the soil. […]
(§3) If it is additionally to be tested as to whether safeners can improve the plant compatibility of test substances in the case of crop plants, the following options are used for applying the safener: • seeds of the crop plants are, before sowing, dressed with safener substance (the amount of safener stated in percent, based on the weight of the seed) • before the application of the test substances, the crop plants are sprayed with the safener at a certain application rate per hectare (usually 1 day before the application of the test substances) • the safener is applied together with the test substance as a tank mix (the amount of safener is stated in g/ha or as a ratio, based on the herbicide).
(§4) By comparing the effect of test substances on crop plants without or with safener treatment, it is possible to assess the effect of the safener substance.
(§5) Container trials in the greenhouse, treatment with safener 1 day prior to herbicide application

In another data set the test system is Summer wheat. Described as above. The class given is in vivo. The following applies: for Summer wheat observed (%): no safener; for Summer wheat observed (%), 10 days after application / Summer wheat observed (%), 28 days after application: greenhouse container trial. The method, then:
as §1, §2, §3, §4, §5

In data set [1] the test system is cotton aphid (Aphis gossypii). Put plainly: Example N: Aphis gossypii test, with ammonium/phosphonium salts and penetrants. The data set is classed as in vivo. The following applies: 20 ppm. The method, then: (§6) Solvent: 7 parts by weight of dimethylformamide
(§7) Emulsifier: 2 parts by weight of alkylaryl polyglycol ether
(§8) To produce a suitable preparation of active compound, 1 part by weight of active compound is mixed with the stated amounts of solvent and emulsifier and the concentrate is diluted with emulsifier-containing water to the desired concentration. For the application with penetrants (rapeseed oil methyl ester 500 EW), ammonium or phosphonium salts or ammonium salts and penetrants (rapeseed oil methyl ester 500 EW), these are in each case added in a concentration of 1000 ppm to the spray liquor.
Cotton plants (Gossypium hirsutum) which are heavily infested by the cotton aphid (Aphis gossypii) are treated by being sprayed to run off point with the preparation of active compound at the desired concentration.
After the desired period of time, the kill in % is determined. 100% means that all aphids have been killed; 0% means that none of the aphids have been killed.
(§9) In this test, for example, the following compounds of the Preparation Examples show good efficacy: see table

Data set [2] can be described thus: logP determination by HPLC on a reverse-phase column (C 18), EEC Directive 79/831 Annex V.A8. The class given is physicochemical. Particulars: HPLC reverse-phase C 18, 43° C., acidic range (pH 2.3), 0.1% aqueous phosphoric acid/acetonitrile; for chromatographic logP: reverse-phase HPLC column (C 18). As for the experimental part: The logP values given in the table were determined in accordance with EEC Directive 79/831 Annex V.A8 by HPLC (High Performance Liquid Chromatography) on a reverse-phase column (C 18). Temperature: 43° C.
Mobile phases for the determination in the acidic range (pH 2.3): 0.1% aqueous phosphoric acid, acetonitrile; linear gradient from 10% acetonitrile to 90% acetonitrile.
Calibration was carried out using unbranched alkan-2-ones (having 3 to 16 carbon atoms) with known logP values (determination of the logP values by retention times using linear interpolation between two successive alkanones).

The subject of data set [3] is green peach aphid (Myzus persicae). In words: Example M: Myzus persicae test, activity increase by ammonium/phosphonium salts in combination with penetrants. The class given is in vivo. Particulars: for Kill (%) after 6 d +AS 1000 ppm: + ammonium sulphate 1000 ppm; for Kill (%) after 6 d +RME 1000 ppm: + rapeseed oil methyl ester 1000 ppm; for Kill (%) after 6 d: no additive. The method, then:
Activity Increase by Ammonia/Phosphonium Salts in Combination with Penetrants
as §6, §7, §8
Paprika plants (Capsicum annuum) which are heavily infested by the green peach aphid (Myzus persicae) are treated by being sprayed to run off point with the preparation of active compound at the desired concentration.
After the desired period of time, the kill in % is determined. 100% means that all animals have been killed; 0% means that none of the animals have been killed.
as §9

Where [4] appears, read: 10 days after application, 12.5 g of a.i./ha.
Where [5] appears, read: 10 days after application, 25 g of a.i./ha.
The mark [6] stands for this setting: 10 days after application, 50 g of a.i./ha.
Setting [7] is: 28 days after application, 12.5 g of a.i./ha.
[8] abbreviates: 28 days after application, 25 g of a.i./ha.
Setting [9] is: 28 days after application, 50 g of a.i./ha.
[10] abbreviates: 28 days after application, 100 g of a.i./ha.
The mark [11] stands for this setting: 10 days after application, 100 g of a.i./ha.
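Throughout, for Summer barley observed (%), 10 days after application: 100% means plants died and 0% means like untreated controls.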
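Throughout, for Summer barley observed (%), 28 days after application: 100% means plants died and 0% means like untreated controls.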
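Throughout, for Summer wheat observed (%), 10 days after application: 100% means plants died and 0% means like untreated controls.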
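Throughout, for Summer wheat observed (%), 28 days after application: 100% means plants died and 0% means like untreated controls.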

`CCOC(=O)OC1=C(c2c(C3CC3)cc(C)cc2C2CC2)C(=O)NC1(C)C` [Example I-1-c-13]: the “Summer barley observed (%)” value in the data set on Summer barley (setting [4]) was 5%; with Summer barley (setting [5]) it was 20%; with Summer barley (setting [6]), 30%. Besides, the “Summer wheat observed (%)” value amounted to 20% in the data set on Summer wheat (setting [4]), 30% in the data set on Summer wheat (setting [5]) and 40% with Summer wheat (setting [6]).
On to `COC1CCC2(CC1)NC(=O)C(c1c(C)cc(C)cc1C1CC1)=C2O` (stereo not shown) [Example I-1-a-7], for which the results for the “Summer barley observed (%)” value in the data set with Summer barley (setting [4]), with Summer barley (setting [5]) and in the data set with Summer barley (setting [6]) were 10%, 50% and 60%, respectively. Moreover, the “Summer wheat observed (%)” value in the data set with Summer wheat (setting [7]) was 30%; in the data set with Summer wheat (setting [8]) it was 60%; with Summer wheat (setting [9]), 70%; with Summer wheat (setting [10]) it was 80%. Further, the “Kill (%) after 6 d +AS + RME in each case 1000 ppm” value (“Kill (%) after 6 d +AS + RME” below) in data set [1] (+ AS + RME in each case 1000 ppm) is 99%. Further, the “Kill (%) after 6 d +AS 1000 ppm” value in data set [1] (+ ammonium sulphate 1000 ppm) is given as 65%. Further, the “Kill (%) after 6 d +RME 1000 ppm” value in data set [1] (+ rapeseed oil methyl ester 1000 ppm) was 75%. Further, the “Kill (%) after 6 d” value in data set [1] (no additive) is listed as 55%.
By logP is commonly meant the decadic logarithm of the partition coefficient of the neutral form, usually between octanol and water. High values mean higher lipophilicity, low ones lower lipophilicity. As for `COC1CCC2(CC1)OC(=O)C(c1c(C)cc(C3CC3)cc1C)=C2O` (single isomer, unassigned) [Example I-2-a-3], in data set [2], the logP is recorded as 2.64.
As to `CCc1cc(C)cc(C2CC2)c1C1=C(O)C(C)(C)NC1=O` [Example I-1-a-5], the “Summer barley observed (%), 10 days after application” value in the data set with Summer barley (12.5 g of a.i./ha) worked out at 50%; with Summer barley (25 g of a.i./ha), 70%; in the data set with Summer barley (50 g of a.i./ha), 80%. The “Summer barley observed (%), 28 days after application” value in the data set with Summer barley (12.5 g of a.i./ha) was found to be 15%; in the data set with Summer barley (25 g of a.i./ha), 25%; with Summer barley (50 g of a.i./ha) it was 40%. For the same compound, the “Summer wheat observed (%), 10 days after application” value (“Summer wheat observed (%), 10 days” below) in the data set with Summer wheat (6.25 g of a.i./ha) is on record as 50%; in the data set on Summer wheat (12.5 g of a.i./ha) it was 60%; in the data set on Summer wheat (25 g of a.i./ha) it was 70%; in the data set with Summer wheat (50 g of a.i./ha) it was 70%. Further, the “Summer wheat observed (%), 28 days after application” value in the data set on Summer wheat (6.25 g of a.i./ha) stood at 10%; in the data set with Summer wheat (12.5 g of a.i./ha), 40%; with Summer wheat (25 g of a.i./ha), 60%; in the data set on Summer wheat (50 g of a.i./ha) it was 75%.
Consider `CCOC1CCCC2(CC1)NC(=O)C(c1c(C)cc(C)cc1C1CC1)=C2O` (stereo not shown) [Example I-1-a-9], for which the results for the “Summer wheat observed (%)” value with Summer wheat (setting [4]), in the data set on Summer wheat (setting [5]) and with Summer wheat (setting [8]) were 60%, 65% and 50%, respectively.
For orientation: chromatographic logP means lipophilicity estimated from chromatographic retention. In turn, `CCc1cc(C)cc(C2CC2)c1C1=C(O)[C@]2(CC[C@H](OC)CC2)OC1=O` [Example I-2-a-1] gave a chromatographic logP in data set [2] of 2.81.
Same read-out and setting: as for `CCOC(=O)C1(OC(=O)Cc2c(CC)cc(C)cc2C2CC2)CCC(OC)CC1` (stereo not shown) [III-1], the figure is 5.15.
Consider `CCc1cc(C)cc(C2CC2)c1C1=C(O)C2CCCN2C1=O` (stereo not shown) [Example I-1-a-18], for which the “Summer barley observed (%)” value was found to be 10% in the data set on Summer barley (setting [4]); 15% in the data set with Summer barley (setting [5]); 25% in the data set with Summer barley (setting [6]); 35% in the data set on Summer barley (setting [11]); 10% with Summer barley (setting [9]); 20% in the data set with Summer barley (setting [10]). The “Summer wheat observed (%), 10 days” value in the data set on Summer wheat (12.5 g of a.i./ha) worked out at 10%; in the data set with Summer wheat (25 g of a.i./ha), 15%; in the data set on Summer wheat (50 g of a.i./ha), 25%; with Summer wheat (100 g of a.i./ha) it was 40%.
With `COC1CCC2(CC1)OC(=O)C(c1c(C)cc(C3CC3)cc1C)=C2O` (single isomer, unassigned) [Example I-2-a-4], in data set [2], the logP is recorded as 2.88.
In turn, `CCc1cc(C)cc(C2CC2)c1C1=C(OC(=O)C(C)(C)C)[C@]2(CC[C@H](OC)CC2)OC1=O` [Example I-2-b-1] had a chromatographic logP in data set [2] of 5.03.
Consider `CCOC1CCCC2(C1)NC(=O)C(c1c(Cl)cc(C)cc1C1CC1)=C2O` (stereo not shown) [Example I-1-a-14], for which the “Summer barley observed (%)” value was determined as 20% with Summer barley (setting [7]), 60% with Summer barley (setting [8]) and 70% with Summer barley (setting [9]). In addition, the “Summer wheat observed (%)” value with Summer wheat (setting [7]) came to 20%; with Summer wheat (setting [8]), 50%; with Summer wheat (setting [9]), 75%; in the data set with Summer wheat (setting [10]), 85%.
`CCOC(=O)OC1=C(c2c(C)cc(C)cc2C2CC2)C(=O)NC12CCC(OC)CC2` (single isomer, unassigned) [Example I-1-c-7]: the “Summer barley observed (%)” value in the data set with Summer barley (setting [4]) is 10%; with Summer barley (setting [5]), 40%; in the data set on Summer barley (setting [6]), 60%; in the data set on Summer barley (setting [11]), 90%; in the data set with Summer barley (setting [9]), 50%; in the data set with Summer barley (setting [10]) it was 95%. In addition, the “Summer wheat observed (%)” value with Summer wheat (setting [4]) was 20%; in the data set with Summer wheat (setting [5]), 60%; in the data set on Summer wheat (setting [7]), 10%; in the data set on Summer wheat (setting [8]), 20%; in the data set on Summer wheat (setting [9]) it was 80%.
Take `Cc1cc(C)c(C2=C(O)C(C)(C)NC2=O)c(C2CC2)c1` [Example I-1-a-8]: the “Summer wheat observed (%)” value in the data set on Summer wheat (setting [5]) came to 25%; in the data set with Summer wheat (setting [6]), 30%; in the data set on Summer wheat (setting [11]), 30%.
On to `COC1CCC2(CC1)NC(=O)C(c1c(C3CC3)cc(C)cc1C1CC1)=C2O` (stereo not shown) [Example I-1-a-15], for which, in data set [3] (4 ppm), the “Kill (%) after 6 d +AS + RME” value is listed as 95%, the “Kill (%) after 6 d +AS 1000 ppm” value stood at 15%, the “Kill (%) after 6 d +RME 1000 ppm” value amounted to 55% and the “Kill (%) after 6 d” value is 5%. Further, in data set [3] (20 ppm), the “Kill (%) after 6 d +AS + RME” value is on record as 98%, the “Kill (%) after 6 d +AS 1000 ppm” value amounted to 95%, the “Kill (%) after 6 d +RME 1000 ppm” value was 95% and the “Kill (%) after 6 d” value is reported as 95%.
For `CCCCOC1CCCC2(C1)NC(=O)C(c1c(Cl)cc(C)cc1C1CC1)=C2O` (stereo not shown) [Example I-1-a-12], the “Summer wheat observed (%), 10 days” value with Summer wheat (6.25 g of a.i./ha) came to 10%; in the data set on Summer wheat (12.5 g of a.i./ha) it was 40%; with Summer wheat (25 g of a.i./ha), 50%. In addition, the “Summer wheat observed (%)” value in the data set on Summer wheat (10 days after application, 6.25 g of a.i./ha) is 30%; with Summer wheat (setting [4]), 50%; in the data set with Summer wheat (setting [5]), 60%; in the data set on Summer wheat (setting [6]), 60%; in the data set with Summer wheat (28 days after application, 6.25 g of a.i./ha) it was 5%; in the data set on Summer wheat (setting [7]), 25%. Further, the “Summer wheat observed (%)” value in the data set with Summer wheat (setting [8]) and in the data set with Summer wheat (setting [9]) was 65% throughout.
In data set [2], `Cc1cc(C2CC2)cc(C)c1C1=C(O)C2(CCOCC2)OC1=O` [Example I-2-a-5] came in with a logP of 2.36.
For the compound `CCc1cc(C)cc(C2CC2)c1C1=C(O)[C@]2(CC[C@@H](OC)CC2)OC1=O` [Example I-2-a-2], in data set [2], the chromatographic logP was found to be 3.07.
